What all share (assay): Eurofins kinase selectivity profile against 380 other human recombinant kinases (Table S2)
Assay type in all cases: biochemical

Assay [1] deals with T1, 380 human recombinant protein kinases (Homo sapiens, UniProt P05771).
T1 construct: purchased Eurofins (Celle Lévescault)
As to conditions: PKCβI(h), read-out: Inhibition rate. In a few lines: (§1)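 Outsourced panel: 380 human recombinant kinases; inhibitor tested at various concentrations; purpose: MK2 selectivity check.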

The target in assay [2] is T2, 380 human recombinant protein kinases (Homo sapiens, UniProt P29323).
T2 construct: purchased Eurofins (Celle Lévescault)
T2 sequence (P29323 19-1055): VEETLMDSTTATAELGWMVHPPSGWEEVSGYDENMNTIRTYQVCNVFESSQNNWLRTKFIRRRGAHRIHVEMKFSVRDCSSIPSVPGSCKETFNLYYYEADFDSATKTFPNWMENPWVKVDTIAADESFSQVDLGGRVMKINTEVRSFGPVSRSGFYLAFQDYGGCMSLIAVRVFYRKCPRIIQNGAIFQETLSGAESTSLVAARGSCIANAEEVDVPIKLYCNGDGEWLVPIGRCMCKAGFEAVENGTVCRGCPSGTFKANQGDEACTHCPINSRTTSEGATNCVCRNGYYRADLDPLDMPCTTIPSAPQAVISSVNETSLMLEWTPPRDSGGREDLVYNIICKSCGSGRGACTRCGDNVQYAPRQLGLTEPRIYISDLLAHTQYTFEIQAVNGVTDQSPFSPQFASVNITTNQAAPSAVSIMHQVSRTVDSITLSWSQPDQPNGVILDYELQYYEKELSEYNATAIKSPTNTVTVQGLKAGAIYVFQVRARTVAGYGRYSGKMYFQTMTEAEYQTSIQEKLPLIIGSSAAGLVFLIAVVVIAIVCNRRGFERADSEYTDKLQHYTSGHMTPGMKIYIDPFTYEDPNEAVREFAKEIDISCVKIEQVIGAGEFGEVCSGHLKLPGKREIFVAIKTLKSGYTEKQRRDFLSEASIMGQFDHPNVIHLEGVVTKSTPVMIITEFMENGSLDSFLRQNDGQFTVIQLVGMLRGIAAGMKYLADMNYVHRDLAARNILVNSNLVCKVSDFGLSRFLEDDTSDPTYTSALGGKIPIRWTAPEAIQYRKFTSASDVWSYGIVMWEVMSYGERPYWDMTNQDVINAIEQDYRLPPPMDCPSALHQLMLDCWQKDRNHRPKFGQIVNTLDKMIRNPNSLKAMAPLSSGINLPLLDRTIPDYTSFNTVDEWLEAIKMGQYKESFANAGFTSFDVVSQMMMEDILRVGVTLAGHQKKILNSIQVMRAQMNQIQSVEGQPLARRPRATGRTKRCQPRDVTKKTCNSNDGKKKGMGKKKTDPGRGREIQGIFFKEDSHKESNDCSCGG
As to conditions: EphB2(h), read-out: Inhibition rate. In a few lines:
as §1

For assay [3], the target named is T3, 380 human recombinant protein kinases (Homo sapiens, UniProt P29376).
T3 construct: purchased Eurofins (Celle Lévescault)
T3 sequence (P29376 17-864): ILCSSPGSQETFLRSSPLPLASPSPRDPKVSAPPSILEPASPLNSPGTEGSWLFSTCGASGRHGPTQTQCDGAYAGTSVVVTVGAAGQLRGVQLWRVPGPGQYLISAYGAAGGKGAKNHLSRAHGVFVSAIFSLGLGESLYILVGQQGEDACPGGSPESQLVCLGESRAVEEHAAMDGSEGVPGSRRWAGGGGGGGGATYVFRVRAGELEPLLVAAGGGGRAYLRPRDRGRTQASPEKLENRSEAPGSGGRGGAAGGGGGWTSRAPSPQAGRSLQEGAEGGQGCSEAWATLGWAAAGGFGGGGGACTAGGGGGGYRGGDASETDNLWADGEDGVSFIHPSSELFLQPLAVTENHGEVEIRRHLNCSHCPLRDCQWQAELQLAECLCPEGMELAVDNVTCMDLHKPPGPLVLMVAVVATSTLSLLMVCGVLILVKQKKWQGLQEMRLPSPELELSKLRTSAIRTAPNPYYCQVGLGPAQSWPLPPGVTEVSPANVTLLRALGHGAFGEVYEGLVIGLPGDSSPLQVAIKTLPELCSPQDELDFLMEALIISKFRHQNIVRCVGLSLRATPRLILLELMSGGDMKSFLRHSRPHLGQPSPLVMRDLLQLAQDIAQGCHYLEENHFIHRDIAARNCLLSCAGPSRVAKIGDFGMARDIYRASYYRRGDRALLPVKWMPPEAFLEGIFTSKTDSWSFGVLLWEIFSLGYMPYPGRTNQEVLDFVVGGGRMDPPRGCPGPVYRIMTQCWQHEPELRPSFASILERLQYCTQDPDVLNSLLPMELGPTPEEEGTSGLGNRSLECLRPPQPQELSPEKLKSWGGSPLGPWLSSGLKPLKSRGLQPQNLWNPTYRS
The following applies: LTK(h), read-out: Inhibition rate. In a few lines:
as §1

For assay [4], the target named is T4, 380 human recombinant protein kinases (Homo sapiens, UniProt P30530).
T4 construct: purchased Eurofins (Celle Lévescault)
T4 sequence (P30530 26-894): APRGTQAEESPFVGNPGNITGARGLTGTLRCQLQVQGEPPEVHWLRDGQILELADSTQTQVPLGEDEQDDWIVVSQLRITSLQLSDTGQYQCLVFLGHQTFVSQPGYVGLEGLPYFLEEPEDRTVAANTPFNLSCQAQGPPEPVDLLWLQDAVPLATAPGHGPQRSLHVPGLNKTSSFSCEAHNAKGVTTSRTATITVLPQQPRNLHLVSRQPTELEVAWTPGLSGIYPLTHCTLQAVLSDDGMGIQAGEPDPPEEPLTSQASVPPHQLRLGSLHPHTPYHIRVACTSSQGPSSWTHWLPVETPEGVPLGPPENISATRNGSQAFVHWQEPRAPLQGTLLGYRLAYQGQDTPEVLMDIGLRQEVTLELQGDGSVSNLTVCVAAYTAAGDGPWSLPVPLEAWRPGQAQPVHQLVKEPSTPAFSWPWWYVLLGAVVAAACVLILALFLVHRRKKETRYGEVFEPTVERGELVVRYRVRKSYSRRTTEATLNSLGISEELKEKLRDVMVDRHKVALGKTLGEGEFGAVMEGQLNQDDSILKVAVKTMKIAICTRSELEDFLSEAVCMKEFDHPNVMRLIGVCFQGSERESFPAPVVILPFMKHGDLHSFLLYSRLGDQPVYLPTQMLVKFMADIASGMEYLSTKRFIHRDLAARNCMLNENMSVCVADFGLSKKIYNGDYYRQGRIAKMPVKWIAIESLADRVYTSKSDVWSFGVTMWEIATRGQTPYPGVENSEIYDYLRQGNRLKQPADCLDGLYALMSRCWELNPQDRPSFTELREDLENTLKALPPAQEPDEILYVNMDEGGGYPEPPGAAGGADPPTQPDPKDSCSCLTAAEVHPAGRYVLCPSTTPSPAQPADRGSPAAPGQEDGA
As to conditions: Axl(h), read-out: Inhibition rate. In a few lines:
as §1

Assay [5] has as its target T5, 380 human recombinant protein kinases (Homo sapiens, UniProt Q16584).
T5 construct: purchased Eurofins (Celle Lévescault)
The following applies: MLK3(h), read-out: Inhibition rate. In a few lines:
as §1

Our source for the inhibition values is PMC11233931, “Remodeling tumor‐associated macrophage for anti‐cancer effects by rational design of irreversible inhibition of mitogen‐activated protein kinase‐activated protein kinase 2” (MedComm, 2024).

Each structure is given as a SMILES string.

T5 sequence (Q16584 whole entry): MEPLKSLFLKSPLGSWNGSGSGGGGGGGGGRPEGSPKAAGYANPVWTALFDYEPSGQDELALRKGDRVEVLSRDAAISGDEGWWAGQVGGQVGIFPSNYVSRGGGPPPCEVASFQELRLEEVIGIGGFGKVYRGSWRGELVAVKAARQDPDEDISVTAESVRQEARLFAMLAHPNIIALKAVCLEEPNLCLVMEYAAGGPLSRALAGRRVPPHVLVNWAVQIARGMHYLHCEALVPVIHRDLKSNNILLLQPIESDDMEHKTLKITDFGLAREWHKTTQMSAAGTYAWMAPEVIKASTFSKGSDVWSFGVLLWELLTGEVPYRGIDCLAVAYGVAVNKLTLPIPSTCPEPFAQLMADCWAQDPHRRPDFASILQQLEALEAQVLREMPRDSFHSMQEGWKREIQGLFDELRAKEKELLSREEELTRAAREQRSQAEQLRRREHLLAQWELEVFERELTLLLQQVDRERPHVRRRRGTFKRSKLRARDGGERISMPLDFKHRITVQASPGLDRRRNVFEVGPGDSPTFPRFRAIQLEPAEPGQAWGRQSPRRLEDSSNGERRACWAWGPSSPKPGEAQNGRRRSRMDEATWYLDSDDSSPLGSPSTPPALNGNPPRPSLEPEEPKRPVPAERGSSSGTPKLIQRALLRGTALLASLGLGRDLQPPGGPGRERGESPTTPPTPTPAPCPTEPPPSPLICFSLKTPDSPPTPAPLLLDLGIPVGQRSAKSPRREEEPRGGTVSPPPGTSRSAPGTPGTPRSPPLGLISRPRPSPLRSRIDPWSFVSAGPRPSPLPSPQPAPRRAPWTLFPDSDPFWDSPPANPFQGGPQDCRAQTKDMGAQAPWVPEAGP
T1 sequence (P05771 whole entry): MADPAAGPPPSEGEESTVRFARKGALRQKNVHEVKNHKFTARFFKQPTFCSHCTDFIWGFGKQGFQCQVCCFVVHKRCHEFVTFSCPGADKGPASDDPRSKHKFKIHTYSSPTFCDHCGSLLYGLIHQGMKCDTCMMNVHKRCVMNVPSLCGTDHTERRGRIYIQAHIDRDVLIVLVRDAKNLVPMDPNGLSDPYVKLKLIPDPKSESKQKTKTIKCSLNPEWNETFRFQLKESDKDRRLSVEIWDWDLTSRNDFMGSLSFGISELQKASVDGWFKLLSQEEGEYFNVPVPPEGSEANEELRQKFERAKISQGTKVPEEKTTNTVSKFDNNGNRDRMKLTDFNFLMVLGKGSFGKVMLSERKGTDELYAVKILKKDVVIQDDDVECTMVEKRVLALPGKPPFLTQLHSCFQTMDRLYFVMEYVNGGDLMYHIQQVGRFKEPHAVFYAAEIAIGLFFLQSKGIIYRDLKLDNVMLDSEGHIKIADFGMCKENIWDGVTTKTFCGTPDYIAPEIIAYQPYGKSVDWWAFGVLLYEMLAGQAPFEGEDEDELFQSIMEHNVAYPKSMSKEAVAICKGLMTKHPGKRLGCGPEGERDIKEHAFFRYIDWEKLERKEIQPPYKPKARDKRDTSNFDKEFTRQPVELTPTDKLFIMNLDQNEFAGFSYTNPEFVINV

Consider `C=CC(=O)Nc1cc(-c2cc(-c3cc4c([nH]3)CCNC4=O)ccn2)ccc1OC(F)(F)F` [compound 11], for which the inhibition – broadly, the drop in the measured response relative to a control, in per cent – at 0.01 µM in assay [1] (10 nM) was 3%; in assay [2] (10 nM) it was 5%; in assay [3] (10 nM) it was -6%; in assay [4] (10 nM), -21%; in assay [5] (10 nM), -2%. In addition, the inhibition at 0.1 µM is 1% in assay [1] (100 nM); -2% in assay [2] (100 nM); 2% in assay [3] (100 nM); -6% in assay [4] (100 nM); 8% in assay [5] (100 nM). Besides, the inhibition at 1 µM is -13% in assay [1] (1000 nM); -14% in assay [2] (1000 nM); 6% in assay [3] (1000 nM); 26% in assay [4] (1000 nM); 43% in assay [5] (1000 nM).
